Data taken from patent US7252957B2, “Identification of etiology of autism” (Immunosciences Lab., Inc., priority 2004, dated 2007).

How the values were obtained:
CD26 = assay: ELISA: binding of gliadin, casein peptides, SK and ethyl mercury to CD26 (inhibition of anti-CD26 binding); details: for % Binding of Gliadin, Casein, Streptokinase, or Mercury to CD26 and CD69: CD26 coated wells, % inhibition in binding of anti-CD26 to CD26; for ELISA O.D. at 492 nm: microwell coated with CD26 + competing antigen, peroxidase labeled rabbit anti-CD26
Experimental: (§1) Plates were incubated for one hour at 37° C. and washed five times for removal of unbound competing antigens. […] After proper incubation and washing, binding of these peptides and proteins to CD26 and CD69 was measured by addition of peroxidase substrate and measurement of color development at 492 nm.

CD69 = biological target: T1, CD69 (Homo sapiens, UniProt Q07108); assay: ELISA: binding of gliadin, casein peptides, SK and ethyl mercury to CD69 (inhibition of anti-CD69 binding); details: for % Binding of Gliadin, Casein, Streptokinase, or Mercury to CD26 and CD69: CD69 coated wells, % inhibition of anti-CD69 binding to CD69; for ELISA O.D. at 492 nm: microwell coated with CD69 + competing antigen, peroxidase labeled rabbit anti-CD69
T1 construct: purchased Bio-Synthesis Inc. (Lewisville, Tex.); host or cells: chemical synthesis
Experimental: as §1

[1] = biological target: CD69 antibody binding epitope … (human); assay: competition ELISA, CD69-coated wells, read with peroxidase labeled rabbit anti-CD69

Casein
% Binding of Gliadin, Casein, Streptokinase, or Mercury to CD26 and CD69 (CD26): 44% | ELISA O.D. at 492 nm (CD26): 1.34 O.D. | % Binding of Gliadin, Casein, Streptokinase, or Mercury to CD26 and CD69 (CD69): 28% | ELISA O.D. at 492 nm (CD69): 1.45 O.D.

streptokinase [SK]
% Binding of Gliadin, Casein, Streptokinase, or Mercury to CD26 and CD69 (CD26): 77% | ELISA O.D. at 492 nm (CD26): 0.72 O.D. | % Binding of Gliadin, Casein, Streptokinase, or Mercury to CD26 and CD69 (CD69): 86% | ELISA O.D. at 492 nm (CD69): 0.48 O.D.

B1: Streptokinase (SK), P00779 27-440 (protein)
chain: IAGPEWLLDRPSVNNSQLVVSVAGTVEGTNQDISLKFFEIDLTSRPAHGGKTEQGLSPKSKPFATDSGAMSHKLEKADLLKAIQEQLIANVHSNDDYFEVIDFASDATITDRNGKVYFADKDGSVTLPTQPVQEFLLSGHVRVRPYKEKPIQNQAKSVDVEYTVQFTPLNPDDDFRPGLKDTKLLKTLAIGDTITSQELLAQAQSILNKNHPGYTIYERDSSIVTHDNDIFRTILPMDQEFTYRVKNREQAYRINKKSGLNEEINNTDLISEKYYVLKKGEKPYDPFDRSHLKLFTIKYVDVDTNELLKSEQLLTASERNLDFRDLYDPRDKAKLLYNNLDAFGIMDYTLTGKVEDNHDDTNRIITVYMGKRPEGENASYHLAYDKDRYTEEEREVYSYLRYTGTPIPDNPNDK
% Binding of Gliadin, Casein, Streptokinase, or Mercury to CD26 and CD69 (% inhibition of anti-CD69 binding) [1]: 86%
